According to patent US12419871B2, “Biomolecules involved in Alzheimer's disease” (ELECTROPHORETICS LIMITED, priority 2015, dated 2025):
Where “and” joins values, the source holds several entries; their conditions need not be identical. Identical values can stand only once. Entries after “also recorded” stand apart in the source; their conditions may differ.

Tested on: TMHT (Thy-1 Mutated Human Tau) mice
Assay: SysQuant analysis of protein and phosphorylation changes in brains of TMHT mice treated with CK1d inhibitors
Assay type: in vivo, mouse
Settings: for Mouse brain Log 2 Ck1 inhibitor: 2′,3′-cyclic-nucleotide 3′-phosphodiesterase / Mouse brain Log 2 Ck1 inhibitor: phosphatase 1 regulatory subunit 14A / effect of treatment on protein phosphatase 1 regulatory subunit 14A level in mouse brain (in words) / effect of treatment on 2′,3′-cyclic-nucleotide 3′-phosphodiesterase level in mouse brain (in words): 30 mg/kg; for effect of treatment on protein phosphatase 1 regulatory subunit 14A level in mouse brain (in words) / effect of treatment on 2′,3′-cyclic-nucleotide 3′-phosphodiesterase level in mouse brain (in words): TMHT model, treated orally 30 mg/kg; for effect of treatment on protein phosphatase 1 regulatory subunit 14A level in mouse brain (in words): versus vehicle alone (FIG. 5B); for effect of treatment on 2′,3′-cyclic-nucleotide 3′-phosphodiesterase level in mouse brain (in words): versus vehicle alone (FIG. 6B); for number of human tau peptides significantly (p<0.05) regulated in the hippocampi of treated mice: of 124 unique quantified peptides from human tau, 30 mg/kg orally
Procedure: Starting at 8.5 months (±2 weeks) of age, TMHT mice received CK1d inhibitors 2-Methyl-amino-3-[(4-fluorophenyl)carbonyl]indolizine-1-carboxamide (PS278-05), 5-(1,3-benzoxazol-2-yl)-4-(pyridine-4-yl)pyrimidin-2-amine (PS110), compound PF4800567 (3-[(3-Chlorophenoxy)methyl]-1-(tetrahydro-2H-pyran-4-yl)-1H-pyrazolo[3,4-d]pyrimidin-4-amine; Tocris®) or vehicle (0.5% w/v methylcellulose) for 8 weeks (54 applications) at a dosage of 30 mg/kg body weight, orally via gavage.
In total 48 animals were used and allocated to 4 treatment groups.
Brain samples were collected within 10 minutes of euthanasia, washed in ice cold saline, transferred to a clean Eppendorf tube and immediately frozen in liquid nitrogen.
One hippocampus sample (left or right) from each of three animals in each of the vehicle, PS110 and PS278-05 groups were selected for analysis by SysQuant. A pool of all nine samples was also prepared as a reference channel. All TMT® labelling, mixing and mass spectrometry and bioinformatics studies were performed essentially as described in Section 4.1. For peptide and protein identification the UniProtKB mouse database was used, supplemented by inclusion of all human tau isoform entries.
All protein identification, peptide sequence, phosphorylation site information along with quantitative values and biological information relating to the peptide, protein and phosphorylation sites were assembled in a Microsoft Excel file (QuantSheet) to allow structured data analysis based on fold-change, significance, biological function and cellular localisation.
Similarly, the expression levels of total tau and for each phosphorylated serine, threonine and tyrosine amino acid in mouse brains following treatment with vehicle control or the CK1d inhibitors PS278-05 and PS110 were calculated.
All peptides that matched the human MAPT (P10636; SEQ ID NO:29) UniProt sequence and/or the mouse MAPT (P10637) were exported into a separate Microsoft Excel sheet. Ion intensity values for each phosphopeptide were summed and the average calculated for each treatment group (Vehicle control, PS110, PS278-05).

[1] = TMHT mice, hippocampus, 30 mg/kg orally via gavage, 8 weeks

SMILES | Mouse brain Log 2 Ck1 inhibitor: BH3-interacting domain death agonist [1] | Mouse brain Log 2 Ck1 inhibitor: Catenin delta-1 [1] | Mouse brain Log 2 Ck1 inhibitor: Clathrin light chain B [1] | Mouse brain Log 2 Ck1 inhibitor: Guanine nucleotide-binding protein G(q) subunit alpha [1] | Mouse brain Log 2 Ck1 inhibitor: Myelin-associated oligodendrocyte basic protein [1] | Mouse brain Log 2 Ck1 inhibitor: Neutral alpha-glucosidase AB [1] | Mouse brain Log 2 Ck1 inhibitor: Secernin-2 [1] | Mouse brain Log 2 Ck1 inhibitor: Short-chain specific acyl-CoA dehydrogenase, mitochondrial [1] | Mouse brain Log 2 Ck1 inhibitor: Syntaphilin [1] | Mouse brain Log 2 Ck1 inhibitor: Transmembrane protein 119 [1] | Mouse brain Log 2 Ck1 inhibitor: 2′,3′-cyclic-nucleotide 3′-phosphodiesterase [1] | Mouse brain Log 2 Ck1 inhibitor: phosphatase 1 regulatory subunit 14A [1] | effect of treatment on protein phosphatase 1 regulatory subunit 14A level in mouse brain (in words) | effect of treatment on 2′,3′-cyclic-nucleotide 3′-phosphodiesterase level in mouse brain (in words) | number of human tau peptides significantly (p<0.05) regulated in the hippocampi of treated mice (TMHT mice, 8 weeks) | further results
Nc1ncc(-c2nc3ccccc3o2)c(-c2ccncc2)n1 [PS110, 5-(1,3-benzoxazol-2-yl)-4-(pyridin-4-yl)pyrimidin-2-amine] | −0.53 | −2.26 | 0.70 | 0.82 | 0.84 | 0.52 | −0.76 | 0.54 | −0.71 | −0.66 | 0.63 and 0.57 | 0.71 and 0.69 | altering the concentration or amount; also recorded: upregulated | altering the concentration or amount; also recorded: upregulated | 37 | Mouse brain Log 2 Ck1 inhibitor: Actin, alpha cardiac muscle 1 [1]: 0.58; Mouse brain Log 2 Ck1 inhibitor: Antithrombin-III [1]: 0.57; Mouse brain Log 2 Ck1 inhibitor: Fibrinogen gamma chain [1]: 1.01; Mouse brain Log 2 Ck1 inhibitor: GMP reductase 1 [1]: 0.68; Mouse brain Log 2 Ck1 inhibitor: Insulin-like growth factor-binding protein [1]: −0.53; Mouse brain Log 2 Ck1 inhibitor: KxDL motif-containing protein 1 [1]: −0.58; Mouse brain Log 2 Ck1 inhibitor: Nuclear pore complex protein Nup155 [1]: −0.53; Mouse brain Log 2 Ck1 inhibitor: Protein KIAA1045 [1]: −0.63; Mouse brain Log 2 Ck1 inhibitor: Serum albumin [1]: 0.69; Mouse brain Log 2 Ck1 inhibitor: cAMP-dependent protein kinase type 1 [1]: 0.53; effect of treatment on protein phosphatase 1 regulatory subunit 14A level in mouse brain (in words) (listed as 5-(1,3-benzoxazol-2-yl)-4-(pyridine-4-yl)pyrimidin-2-amine): up-regulation
NC(=O)c1c(N)c(C(=O)c2ccc(F)cc2)n2ccccc12 [PS278, 2-amino-3-[(4-fluorophenyl)carbonyl]indolizine-1-carboxamide] | −0.56 | −1.07 | 0.50 | 0.62 | 0.66 | −0.78 | −0.52 | 0.57 | −0.76 | −0.52 | 0.62 and 0.63 | 0.49 and 0.71 | – | – | – | Mouse brain Log 2 Ck1 inhibitor: Centrosomal protein of 170 kDa [1]: −0.51; Mouse brain Log 2 Ck1 inhibitor: Egl nine homolog 1 [1]: -0.73; Mouse brain Log 2 Ck1 inhibitor: Lambda-crystallin homolog [1]: 0.56; Mouse brain Log 2 Ck1 inhibitor: OCIA domain-containing protein 1 [1]: −0.59; Mouse brain Log 2 Ck1 inhibitor: Synaptoporin [1]: 0.72; Mouse brain Log 2 Ck1 inhibitor: Tubulin alpha chain-like 3 [1]: 0.67
CNc1c(C(N)=O)c2ccccn2c1C(=O)c1ccc(F)cc1 [PS278-05, 2-Methyl-amino-3-[(4-fluorophenyl)carbonyl]indolizine-1-carboxamide] | – | – | – | – | – | – | – | – | – | – | – | – | up-regulation; also recorded: altering the concentration or amount; also recorded: upregulated | altering the concentration or amount; also recorded: upregulated | 22 | –
